US8236984B2, “Compound and use thereof in the treatment of amyloidosis” (Pentraxin Therapeutics Ltd., priority 2007, dated 2012)
“Also recorded” adds a separate entry of the source.

What was measured:
V30M transthyretin = target: T1, V30M transthyretin (Homo sapiens, UniProt P02766, V50M); assay: Mass spectrometric analysis of subunit exchange; assay type: biochemical; conditions: 2-fold molar excess of ligand, data not shown
T1 construct: made in house
Experimental: (§1) 4.2 Mass spectrometric analysis of subunit exchange. Recombinant wild type, L55P and V30M transthyretin variants were biosynthetically labelled with isotopes [^15N] and [^15N, ^13C] as previously described (Keetch C A et al, 2005). Immediately prior to analysis, proteins were buffer exchanged into 20 mM ammonium acetate, pH 7.0 using Micro Biospin columns (Bio-Rad, UK). The subunit composition of transthyretin was monitored as a function of time by incubating an equimolar solution (4.4 μM) of [^15N] and [^15N, ^13C] labelled proteins in the presence of 2-fold molar excess of 4ajm15 in DMSO or 2.5% DMSO alone as a control. Each experiment was carried out in triplicate at room temperature and at 4° C. as well, since it is known that subunit exchange is accelerated at low temperatures. Nanoflow ESMS was performed on a QToF2 instrument (Waters/Micromass UK, Ltd.) modified for high mass operation (Sobott et al, (2002)) and calibrated externally using caesium iodide (100 mg/ml). Each solution, 1.5 μl, was electrosprayed from gold coated borosilicate capillaries prepared in-house as described (Nettleton E J, et al, 1998). […]

wild type transthyretin = wild type transthyretin (Homo sapiens, UniProt P02766); assay: Mass spectrometric analysis of subunit exchange; assay type: biochemical; parameters: made in house; conditions: 4.4 μM labelled proteins, 2-fold molar excess of ligand, room temperature and 4° C.
Experimental: as §1

transthyretin = target: T2, transthyretin (Homo sapiens, UniProt P02766); assay: Isothermal titration calorimetry of transthyretin-ligand binding; conditions: ITC, Tris-NaCl pH 8.0, 2% DMSO, 37° C.
T2 construct: Native tetrameric transthyretin was purified from fractionated human plasma; from tissue; host or cells: human plasma
Experimental: 3.3.3 Isothermal titration calorimetry (itc) of transthyretin-mds84 ligand binding: Thermodynamic parameters of transthyretin-mds84 ligand binding were measured directly by isothermal titration calorimetry (VP-ITC, MicroCal LLC, Milton Keynes, UK). An initial injection of 1 μl of mds84 at 0.348 mM was made into transthyretin at a final concentration of 0.029 mM tetramer, followed, at 240 sec intervals, by 35 successive 8 μl injections. The diluent was Tris-NaCl pH 8.0 with 2% (v/v) DMSO. The sample cell was stirred at 310 rpm and cell contents were maintained at 37° C. After correction for volume displacement and plotting against the molar ratio of injected ligand to transthyretin tetramer, integration of the raw thermogram (FIG. 5, upper graph) yielded a binding isotherm (FIG. 5, lower graph) that was best fitted (determined by χ^2 analysis) to a model with a single set of identical sites by non-linear least squares analysis in ORIGIN v7.0 (MicroCal LLC).

Structure (SMILES)	subunit exchange of V30M transthyretin (V30M transthyretin)	subunit exchange of wild type transthyretin (wild type transthyretin)	enthalpy (ΔH) (transthyretin) [kcal/mol]	Kd (transthyretin; 0.029 mM tetramer, read-out: dissociation constant (Kd)) [nM]
O=C(O)c1ccccc1Nc1cc(Cl)c(OCCCCCCCCCCCOc2c(Cl)cc(Nc3ccccc3C(=O)O)cc2Cl)c(Cl)c1 [4ajm15, 2,2′-(4,4′-(undecane-1,11-diylbis(oxy))bis(3,5-dichloro-4,1-phenylene))bis(azanediyl)dibenzoic acid]	Exactly the same effect	prevents any subunit exchange; also recorded: almost complete absence of exchange after 7 days	–	–
O=C(O)c1ccccc1Nc1cc(Cl)c(OCCCCCCCOc2c(Cl)cc(Nc3ccccc3C(=O)O)cc2Cl)c(Cl)c1 [mds84, 2,2′-(4,4′-(heptane-1,7-diylbis(oxy))bis(3,5-dichloro-4,1-phenylene))bis(azanediyl)dibenzoic acid]	–	–	-7.95	505
